# Measured values taken from EP0505640B2, “Improved therapeutic method” (ELI LILLY AND COMPANY, priority 1991, dated 1992).
# Read-outs that look alike come from different tables or passages of the source.
# How the values were obtained:
# bovine FBP = bovine FBP (Bos taurus, UniProt P02702); assay: Folate binding constant, procedure of Dunn and Foster
# Description: As noted above, the drug products which can be employed in the present invention include other GAR-transformylase or TS inhibitors which are capable of binding to folate binding protein. Folic acid itself has a binding constant (ng/ml) of 1.8, and lometrexol has a binding constant of 9.7 to bovine FBP. Any GAR-transformylase or TS inhibitor that binds at less than about 500 ng/ml can be utilized in the method of this invention. The folate binding constant for drug products can be readily determined by the general procedure of Dunn and Foster, Clin. Chem., 19 (10), 1101-1105 (1973).
# C3H Mice = assay: Toxicity measured as death of tumor-bearing C3H mice; format: in vivo
# Description: (§1) In one such test, mice are inoculated with the C3H strain of mammary adenocarcinoma by inserting a 2 mm by 2 mm section of tumor into the axillary region of the mice by trocar. In all experiments, lometrexol was administered intraperitoneally once a day for five consecutive days, starting on the day following tumor implantation. Ten animals were used at each dosage level. Antitumor activity was assessed on day ten by measuring the length and width of the tumor growth using vernier calipers, and the activity was expressed as a percent inhibition of tumor growth.
# [1] = tested on: nasalpharyngeal carcinoma; conditions: one subject with nasalpharyngeal carcinoma, folic acid 0.5 to 1.0 mg/day, after the 12 months of therapy
# [2] = tested on: C3H strain of mammary adenocarcinoma; assay: Antitumor activity against implanted C3H mammary adenocarcinoma in mice; format: in vivo
# Description: as §1
# [3] = read-out: Binding Constant, folate binding protein
# Sequence of bovine FBP (P02702 20-234): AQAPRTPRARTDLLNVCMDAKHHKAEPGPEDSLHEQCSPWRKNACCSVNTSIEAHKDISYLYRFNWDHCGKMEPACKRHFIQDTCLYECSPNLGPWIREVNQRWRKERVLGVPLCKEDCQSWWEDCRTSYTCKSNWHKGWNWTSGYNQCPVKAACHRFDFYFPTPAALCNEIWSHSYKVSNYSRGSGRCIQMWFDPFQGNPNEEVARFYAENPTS
smiles,measurement,setting,value
Nc1nc(O)c2c(n1)NCC(CCc1ccc(C(=O)NC(CCC(=O)O)C(=O)O)o1)C2 (stereo not shown),Kd,bovine FBP; [3],0.579 µM
Nc1nc(O)c2c(n1)NCC(CCc1ccc(C(=O)NC(CCC(=O)O)C(=O)O)s1)C2 (stereo not shown),Kd,bovine FBP; [3],0.0545 µM
Nc1nc(O)c2c(n1)NCC(CCC1CCC(C(=O)NC(CCC(=O)O)C(=O)O)CC1)C2 (stereo not shown),Kd,bovine FBP; [3],0.0578 µM
C#CCN(Cc1ccc2[nH]c(N)nc(=O)c2c1)c1ccc(C(=O)NC(CCC(=O)O)C(=O)O)cc1 (stereo not shown),Kd,bovine FBP; [3],0.0251 µM
Cc1nc2ccc(CN(C)c3ccc(C(=O)NC(CCC(=O)O)C(=O)O)s3)cc2c(=O)[nH]1 (stereo not shown),Kd,bovine FBP; [3],0.534 µM
Nc1nc2ncc(CNc3ccc(C(=O)N[C@@H](CCC(=O)O)C(=O)O)cc3)nc2c(=O)[nH]1 [Folic acid],Kd,"bovine FBP; folate binding protein, read-out: Binding Constant (converted)",0.00408 µM
"Nc1nc2c(c(=O)[nH]1)CC(CCc1ccc(C(=O)N[C@@H](CCC(=O)O)C(=O)O)cc1)CN2 (stereo partly shown) [Lometrexol, 5,10-dideazatetrahydrofolic acid]",Toxicity (Mice Dead/Total Mice),"C3H Mice; Lometrexol 0.0625 mg/kg i.p. once a day for five days, two weeks on folate-free diet",0/10
same,Toxicity (Mice Dead/Total Mice),"C3H Mice; Lometrexol 0.125 mg/kg i.p. once a day for five days, folate-free diet plus 0.0003% folate in drinking water",0/10
same,Toxicity (Mice Dead/Total Mice),"C3H Mice; Lometrexol 0.125 mg/kg i.p. once a day for five days, two weeks on folate-free diet",0/10
same,Toxicity (Mice Dead/Total Mice),"C3H Mice; Lometrexol 0.25 mg/kg i.p. once a day for five days, folate-free diet plus 0.0003% folate in drinking water",0/10
same,Toxicity (Mice Dead/Total Mice),"C3H Mice; Lometrexol 0.25 mg/kg i.p. once a day for five days, two weeks on folate-free diet",0/10
same,Toxicity (Mice Dead/Total Mice),"C3H Mice; Lometrexol 0.5 mg/kg i.p. once a day for five days, folate-free diet plus 0.0003% folate in drinking water",0/10
same,Toxicity (Mice Dead/Total Mice),"C3H Mice; Lometrexol 0.5 mg/kg i.p. once a day for five days, two weeks on folate-free diet",0/10
same,Toxicity (Mice Dead/Total Mice),"C3H Mice; Lometrexol 1.0 mg/kg i.p. once a day for five days, folate-free diet plus 0.0003% folate in drinking water",0/10
same,Toxicity (Mice Dead/Total Mice),"C3H Mice; Lometrexol 1.0 mg/kg i.p. once a day for five days, two weeks on folate-free diet",8/10
same,Toxicity (Mice Dead/Total Mice),"C3H Mice; Lometrexol 1.0 mg/kg i.p. once a day for five days, two weeks on folate-free diet, listed as lometrexol",lethal to the majority of the mice
same,Toxicity (Mice Dead/Total Mice),"C3H Mice; Lometrexol 2.0 mg/kg i.p. once a day for five days, folate-free diet plus 0.0003% folate in drinking water",0/10
same,Toxicity (Mice Dead/Total Mice),"C3H Mice; Lometrexol 4.0 mg/kg i.p. once a day for five days, folate-free diet plus 0.0003% folate in drinking water",4/10
same,Toxicity (Mice Dead/Total Mice),"C3H Mice; Lometrexol 6.25 mg/kg i.p. once a day for five days, folate-free diet plus 0.003% folate in drinking water",0/10
same,Toxicity (Mice Dead/Total Mice),"C3H Mice; Lometrexol 12.5 mg/kg i.p. once a day for five days, folate-free diet plus 0.003% folate in drinking water",0/10
same,Toxicity (Mice Dead/Total Mice),"C3H Mice; Lometrexol 25 mg/kg i.p. once a day for five days, folate-free diet plus 0.003% folate in drinking water",0/10
same,Toxicity (Mice Dead/Total Mice),"C3H Mice; Lometrexol 50 mg/kg i.p. once a day for five days, folate-free diet plus 0.003% folate in drinking water",0/10
same,clinical evidence of disease,[1],no clinical evidence of disease
same,Kd,bovine FBP,0.0219 µM
same,Antitumor Activity (% Inhibition),"[2]; Lometrexol 0.0625 mg/kg i.p. once a day for five days, two weeks on folate-free diet, assessed day ten",0%
same,Antitumor Activity (% Inhibition),"[2]; Lometrexol 0.125 mg/kg i.p. once a day for five days, folate-free diet plus 0.0003% folate in drinking water, day ten",13%
same,Antitumor Activity (% Inhibition),"[2]; Lometrexol 0.125 mg/kg i.p. once a day for five days, two weeks on folate-free diet, assessed day ten",0%
same,Antitumor Activity (% Inhibition),"[2]; Lometrexol 0.25 mg/kg i.p. once a day for five days, folate-free diet plus 0.0003% folate in drinking water, day ten",26%
same,Antitumor Activity (% Inhibition),"[2]; Lometrexol 0.25 mg/kg i.p. once a day for five days, two weeks on folate-free diet, assessed day ten",21%
same,Antitumor Activity (% Inhibition),"[2]; Lometrexol 0.5 mg/kg i.p. once a day for five days, folate-free diet plus 0.0003% folate in drinking water, day ten",48%
same,Antitumor Activity (% Inhibition),"[2]; Lometrexol 0.5 mg/kg i.p. once a day for five days, two weeks on folate-free diet, assessed day ten",88%
same,Antitumor Activity (% Inhibition),"[2]; Lometrexol 1.0 mg/kg i.p. once a day for five days, folate-free diet plus 0.0003% folate in drinking water, day ten",97%
same,Antitumor Activity (% Inhibition),"[2]; Lometrexol 1.0 mg/kg i.p. once a day for five days, two weeks on folate-free diet, assessed day ten",100%
same,Antitumor Activity (% Inhibition),"[2]; Lometrexol 2.0 mg/kg i.p. once a day for five days, folate-free diet plus 0.0003% folate in drinking water, day ten",98%
same,Antitumor Activity (% Inhibition),"[2]; Lometrexol 4.0 mg/kg i.p. once a day for five days, folate-free diet plus 0.0003% folate in drinking water, day ten",99%
same,Antitumor Activity (% Inhibition),"[2]; Lometrexol 6.25 mg/kg i.p. once a day for five days, folate-free diet plus 0.003% folate in drinking water, day ten",91%
same,Antitumor Activity (% Inhibition),"[2]; Lometrexol 12.5 mg/kg i.p. once a day for five days, folate-free diet plus 0.003% folate in drinking water, day ten",89%
same,Antitumor Activity (% Inhibition),"[2]; Lometrexol 25 mg/kg i.p. once a day for five days, folate-free diet plus 0.003% folate in drinking water, day ten",97%
same,Antitumor Activity (% Inhibition),"[2]; Lometrexol 50 mg/kg i.p. once a day for five days, folate-free diet plus 0.003% folate in drinking water, day ten",96%
Nc1nc(O)c2c(n1)NCC(CCCc1ccc(C(=O)NC(CCC(=O)O)C(=O)O)cc1)C2 (stereo not shown) [n = 3 X = H],Kd,bovine FBP,0.0273 µM
